Several values for one entry are separate records, joined by “and”; a condition that tells them apart may be missing. Equal values may be shown once. Inconclusive results and toxic doses are left out. Rule for the calls: active = survival T/C of 150% or more; inactive = T/C below 125% in these data.
System: BDF1 mice, L1210 leukemia sc, survival T/C
Assay: NCI In Vivo Anticancer Drug Screen. Data for tumor model L1210 Leukemia (subcutaneous) in B6D2F1 (BDF1) mice
Details: higher = longer survival
Outline: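 Transplantable tumor-bearing mice; survival or tumor size recorded; result = T/C, treated vs vehicle control.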

[1] = endpoint: median survival time, dose: 39.0 mg/kg/injection, schedule: Q01DX Z (sc), vehicle: methylcellulose (MC)
[2] = endpoint: median survival time, dose: 5.0 mg/kg/injection, schedule: Q01DX Z (sc), vehicle: methylcellulose (MC)
[3] = endpoint: median survival time, dose: 8.4 mg/kg/injection, schedule: Q01DX Z (sc), vehicle: methylcellulose (MC)
[4] = endpoint: median survival time, dose: 14.0 mg/kg/injection, schedule: Q01DX Z (sc), vehicle: methylcellulose (MC)
[5] = endpoint: median survival time, dose: 23.0 mg/kg/injection, schedule: Q01DX Z (sc), vehicle: methylcellulose (MC)
[6] = endpoint: median survival time, dose: 180.0 mg/kg/injection, schedule: Q01DX Z (sc), vehicle: methylcellulose (MC)
[7] = endpoint: median survival time, dose: 300.0 mg/kg/injection, schedule: Q01DX Z (sc), vehicle: methylcellulose (MC)

Measured: T/C

CCN(O)C(N)=O
inactive: endpoint: median survival time, dose: 1.0 mg/kg/injection, schedule: Q01DX Z (sc), vehicle: methylcellulose (MC) 95 % of control | endpoint: median survival time, dose: 2.0 mg/kg/injection, schedule: Q01DX Z (sc), vehicle: methylcellulose (MC) 104 % of control | endpoint: median survival time, dose: 4.0 mg/kg/injection, schedule: Q01DX Z (sc), vehicle: methylcellulose (MC) 91 % of control | endpoint: median survival time, dose: 8.0 mg/kg/injection, schedule: Q01DX Z (sc), vehicle: methylcellulose (MC) 100 % of control | endpoint: median survival time, dose: 16.0 mg/kg/injection, schedule: Q01DX Z (sc), vehicle: methylcellulose (MC) 100 % of control | endpoint: median survival time, dose: 31.0 mg/kg/injection, schedule: Q01DX Z (sc), vehicle: methylcellulose (MC) 100 % of control | endpoint: median survival time, dose: 62.0 mg/kg/injection, schedule: Q01DX Z (sc), vehicle: methylcellulose (MC) 100 % of control | endpoint: median survival time, dose: 125.0 mg/kg/injection, schedule: Q01DX Z (sc), vehicle: methylcellulose (MC) 100 % of control | endpoint: median survival time, dose: 250.0 mg/kg/injection, schedule: Q01DX Z (sc), vehicle: methylcellulose (MC) 112 % of control

COc1ccc2nc3cc(Cl)ccc3c(NCCN(CCCl)CCCl)c2c1
inactive: endpoint: median survival time, dose: 0.65 mg/kg/injection, schedule: Q01DX Z (sc), vehicle: methylcellulose (MC) 105 % of control | [1] 100 % of control

COc1cc([C@@H]2c3cc4c(cc3[C@H](O)[C@H]3COC(=O)[C@H]23)OCO4)cc(OC)c1OC
inactive: [2] 109 % of control | [3] 109 % of control | [4] 104 % of control | [5] 109 % of control

C[C@]12C=CC(=O)C=C1CC[C@@H]1[C@@H]2CC[C@]2(C)OC(=O)CC[C@@H]12
inactive: [5] 100 % of control | [1] 100 % of control | endpoint: median survival time, dose: 65.0 mg/kg/injection, schedule: Q01DX Z (sc), vehicle: methylcellulose (MC) 100 % of control | [6] 100 % of control | [7] 100 % of control | endpoint: median survival time, dose: 500.0 mg/kg/injection, schedule: Q01DX Z (sc), vehicle: methylcellulose (MC) 100 % of control

Nc1ncnc2[nH]ncc12
inactive: endpoint: median survival time, dose: 3.0 mg/kg/injection, schedule: Q01DX Z (sc), vehicle: methylcellulose (MC) 100 % of control | [2] 112 % of control | [3] 112 % of control and 115 % of control | [4] 108 % of control | endpoint: median survival time, dose: 23.3 mg/kg/injection, schedule: Q01DX Z (sc), vehicle: methylcellulose (MC) 91 % of control | endpoint: median survival time, dose: 38.9 mg/kg/injection, schedule: Q01DX Z (sc), vehicle: methylcellulose (MC) 120 % of control | endpoint: median survival time, dose: 46.8 mg/kg/injection, schedule: Q01DX Z (sc), vehicle: methylcellulose (MC) 116 % of control | endpoint: median survival time, dose: 64.8 mg/kg/injection, schedule: Q01DX Z (sc), vehicle: methylcellulose (MC) 100 % of control | endpoint: median survival time, dose: 78.0 mg/kg/injection, schedule: Q01DX Z (sc), vehicle: methylcellulose (MC) 100 % of control | endpoint: median survival time, dose: 108.0 mg/kg/injection, schedule: Q01DX Z (sc), vehicle: methylcellulose (MC) 100 % of control | endpoint: median survival time, dose: 130.0 mg/kg/injection, schedule: Q01DX Z (sc), vehicle: methylcellulose (MC) 91 % of control | [6] 100 % of control | [7] 100 % of control

CS(=O)(=O)OCCCNCCCOS(C)(=O)=O
inactive: endpoint: median survival time, dose: 15.0 mg/kg/injection, schedule: Q01DX009 (sc), vehicle: saline 111 % of control | endpoint: median survival time, dose: 30.0 mg/kg/injection, schedule: Q01DX009 (sc), vehicle: saline 108 % of control | endpoint: median survival time, dose: 39.0 mg/kg/injection, schedule: Q04DX003 (ip), vehicle: saline 118 % of control | endpoint: median survival time, dose: 180.0 mg/kg/injection, schedule: Q04DX003 (ip), vehicle: saline 93 % of control

Cc1cccc2c(Nc3ccc(NS(C)(=O)=O)cc3)c3ccccc3nc12
inactive: endpoint: mean survival time, dose: 10.0 mg/kg/injection, schedule: Q01DX009 (ip), vehicle: saline 103 % of control | endpoint: mean survival time, dose: 20.0 mg/kg/injection, schedule: Q01DX009 (ip), vehicle: saline 107 % of control | endpoint: mean survival time, dose: 40.0 mg/kg/injection, schedule: Q01DX009 (ip), vehicle: saline 106 % of control | endpoint: mean survival time, dose: 80.0 mg/kg/injection, schedule: Q01DX009 (ip), vehicle: saline 100 % of control | endpoint: median survival time, dose: 10.0 mg/kg/injection, schedule: Q01DX009 (ip), vehicle: saline with Tween-80 106 % of control | endpoint: median survival time, dose: 20.0 mg/kg/injection, schedule: Q01DX009 (ip), vehicle: saline with Tween-80 112 % of control
